Measurements reported in patent publication US10377743B2, “Inhibitors of RAS and methods of use thereof” (Araxes Pharma LLC, priority 2016, dated 2019).

Each compound was assayed against T1, KRAS G12C 1-169, his-tagged protein, GDP-loaded (Homo sapiens, UniProt P01116, G12C) (assay: Biochemical assay: covalent binding (modification %) to KRAS G12C by mass spectrometry). Settings: 2 hour incubation period, 8 μM compound (compounds 21-92).
T1 construct: KRAS G12C 1-169, his-tagged protein, GDP-loaded
Protocol: Test compounds were prepared as 10 mM stock solutions in DMSO (Fisher cat# BP-231-100). KRAS G12C 1-169, his-tagged protein, GDP-loaded was diluted to 2 μM or 0.5 μM in buffer (20 mM Hepes, 150 mM NaCl, 1 mM MgCl2). Compounds were tested for activity as follows:
Compounds were diluted to 50× final test concentration in DMSO in 96-well storage plates. Compound stock solutions were vortexed before use and observed carefully for any sign of precipitation. Dilutions were as follow: • For 100 μM final compound concentration, compounds were diluted to 5000 μM (5 μL 10 mM compound stock+5 μL DMSO and mixed well by pipetting. • For 30 μM final compound concentration, compounds were diluted to 1500 μM (3 μL 10 mM compound stock+17 μL DMSO) and mixed well by pipetting. • For 10 μM final compound concentration, compounds were diluted to 500 μM (2 μL 10 mM compound stock+38 μL DMSO) and mixed well by pipetting. 49 μL of the stock protein solution was added to each well of a 96-well PCR plate (Fisher cat#1423027). 1 μl of the diluted 50× compounds were added to appropriate wells in the PCR plate using 12-channel pipettor. Reactions were mixed carefully and thoroughly by pipetting up/down with a 200 μL multi-channel pipettor. The plate was sealed well with aluminum plate seal, and stored in drawer at room temperature for 10 minutes, 30 minutes, 2 hours or 24 hours. 5 μL of 2% formic acid (Fisher cat# A117) in de-ionized H2O was then added to each well followed by mixing with a pipette. The plate was then resealed with aluminum seal and stored on dry ice until analyzed as described below.
The above described assays were analyzed by mass spectrometry according to one of the following two procedures:
The MS instrument is set to positive polarity, 2 GHz resolution, and low mass (1700) mode and allowed to equilibrate for 30 minutes. The instrument is then calibrated, switched to acquisition mode and the appropriate method loaded.
After another 30 minute equilibration time, a blank batch (i.e., buffer) is run to ensure equipment is operating properly. The samples are thawed at 37° C. for 10 minutes, briefly centrifuged, and transfer to the bench top. Wells A1 and H12 are spiked with 1 μL 500 μM internal standard peptide, and the plates centrifuged at 2000×g for 5 minutes. The method is then run and masses of each individual well recorded.
The masses (for which integration data is desired) for each well are pasted into the platemap and exported from the analysis. Masses for the internal standards are exported as well. The data at 50 ppm is extracted for the +19 charge state, and identity of well A1 is assigned using the internal standard spike and integrated. Peak data is exported as a TOF list and the above steps are repeated individually, for the +20, 21, 22, 23, 24, and 25 charge states.
The masses and peak intensities of KRAS G12C protein species were measured using a Dionex RSLCnano system (Thermo Scientific) connected to a Q Exactive Plus mass spectrometer (Thermo Scientific).
[…] of sample was each loaded onto a Aeris™ 3.6 μm WIDEPORE C4 200 Å, LC Column 50×2.1 mm column maintained at 40° C. at a flow rate of 600 μL/min with 20% Solvent A (0.1% formic acid in H2O) and 80% Solvent B (0.1% formic acid in acetonitrile). The liquid chromatography conditions were 20% solvent B for 1 minute, 20% to 60% solvent B for 1.5 minutes, 60% to 90% solvent for 0.5 minute, 90% solvent B for 0.2 minute, 90% to 20% solvent B for 0.2 minute, and then equilibrated for 1.6 minute before the following sample injection. The flow rate was maintained at 600 μL/min throughout the sample analysis.
The mass spectrometer was operated in profile mode at a resolution of 17500, 5 microscans, using 50 msec max injection time and an AGC target of 1×10^6, and a full mass range from 800-1850 m/z was recorded. The HCD trapping gas was optimized for maximum sensitivity for intact proteins. […]

Row | Compound | Binding %
1 | C=CC(=O)N1CC(N2Cc3ccc(-c4cccc5cn[nH]c45)cc3C2=O)C1 [Compound 53, 2-(1-acryloylazetidin-3-yl)-6-(1H-indazol-7-yl)isoindolin-1-one] | + (+ indicates binding activity up to 10%)
2 | C=CC(=O)N1CC(N2Cc3ccc(-c4cccc(O)n4)cc3C2=O)C1 [Compound 54, 2-(1-acryloylazetidin-3-yl)-6-(6-hydroxypyridin-2-yl)isoindolin-1-one] | + (+ indicates binding activity up to 10%)
3 | C=CC(=O)N1CC(N2Cc3ccc(-c4cccc(C#N)c4)cc3C2=O)C1 [Compound 55, 3-(2-(1-acryloylazetidin-3-yl)-3-oxoisoindolin-5-yl)benzonitrile] | + (+ indicates binding activity up to 10%)
4 | C=CC(=O)N1CC(N2Cc3ccc(-c4c(C)ccc5[nH]ncc45)cc3C2)C1 [Compound 56, 1-(3-(5-(5-methyl-1H-indazol-4-yl)isoindolin-2-yl)azetidin-1-yl)prop-2-en-1-one] | + (+ indicates binding activity up to 10%)
5 | C=CC(=O)N1CC(N2Cc3ccc(N4CCc5ccccc54)cc3C2=O)C1 [Compound 57, 2-(1-acryloylazetidin-3-yl)-6-(indolin-1-yl)isoindolin-1-one] | + (+ indicates binding activity up to 10%)
6 | C=CC(=O)N1CC(N2Cc3ccc(-c4cccc(NC)c4)cc3C2=O)C1 [Compound 58, 2-(1-acryloylazetidin-3-yl)-6-(3-(methylamino)phenyl)isoindolin-1-one] | + (+ indicates binding activity up to 10%)
7 | C=CC(=O)N1CC(N2Cc3ccc(N4CCC(O)C4)cc3C2=O)C1 (centres unmarked) [Compound 59, 2-(1-acryloylazetidin-3-yl)-6-(3-hydroxypyrrolidin-1-yl)isoindolin-1-one] | + (+ indicates binding activity up to 10%)
8 | C=CC(=O)N1CC(N2Cc3ccc(-c4ccccc4NC)cc3C2=O)C1 [Compound 60, 2-(1-acryloylazetidin-3-yl)-6-(2-(methylamino)phenyl)isoindolin-1-one] | + (+ indicates binding activity up to 10%)
9 | C=CC(=O)N1CC(N2Cc3ccc(-c4ccccc4C#N)cc3C2=O)C1 [Compound 61, 2-(2-(1-acryloylazetidin-3-yl)-3-oxoisoindolin-5-yl)benzonitrile] | + (+ indicates binding activity up to 10%)
10 | C=CC(=O)N1CC(N2Cc3ccc(N4CCC(N(C)C)C4)cc3C2=O)C1 (centres unmarked) [Compound 62, 2-(1-acryloylazetidin-3-yl)-6-(3-(dimethylamino)pyrrolidin-1-yl)isoindolin-1-one] | + (+ indicates binding activity up to 10%)
11 | C=CC(=O)N1CC(N2Cc3cc(C(N)=O)c(-c4cc(O)cc5ccccc45)cc3C2=O)C1 [Compound 63, 2-(1-acryloylazetidin-3-yl)-6-(3-hydroxynaphthalen-1-yl)-1-oxoisoindoline-5-carboxamide] | ++ (++ indicates binding activity from 10 to 50%)
12 | C=CC(=O)N1CC(N2Cc3cc(C#N)c(-c4cc(O)cc5ccccc45)cc3C2=O)C1 [Compound 64, 2-(1-acryloylazetidin-3-yl)-6-(3-hydroxynaphthalen-1-yl)-1-oxoisoindoline-5-carbonitrile] | +++ (+++ indicates binding activity greater than 50%)
13 | C=CC(=O)N1CC(N2Cc3ccc(-c4c(C)ccc5[nH]nc(N)c45)cc3C2=O)C1 [Compound 65, 2-(1-acryloylazetidin-3-yl)-6-(3-amino-5-methyl-1H-indazol-4-yl)isoindolin-1-one] | +++ (+++ indicates binding activity greater than 50%)
14 | C=CC(=O)N1CC(N2Cc3ccc(-c4cn[nH]c4)cc3C2=O)C1 [Compound 66, 2-(1-acryloylazetidin-3-yl)-6-(1H-pyrazol-4-yl)isoindolin-1-one] | + (+ indicates binding activity up to 10%)
15 | C=CC(=O)N1CC(N2Cc3ccc(-c4cc(O)cc5ccccc45)c(F)c3C2=O)C1 [Compound 67, 2-(1-acryloylazetidin-3-yl)-7-fluoro-6-(3-hydroxynaphthalen-1-yl)isoindolin-1-one] | +++ (+++ indicates binding activity greater than 50%)
16 | C=CC(=O)N1CC(N2Cc3ccc(-c4cccnc4O)cc3C2=O)C1 [Compound 68, 2-(1-acryloylazetidin-3-yl)-6-(2-hydroxypyridin-3-yl)isoindolin-1-one] | + (+ indicates binding activity up to 10%)
17 | C=CC(=O)N1CC(N2Cc3ccc(-c4c(C)ccc5[nH]ncc45)c(F)c3C2=O)C1 [Compound 69, 2-(1-acryloylazetidin-3-yl)-7-fluoro-6-(5-methyl-1H-indazol-4-yl)isoindolin-1-one] | ++ (++ indicates binding activity from 10 to 50%)
18 | C=CC(=O)N1CC(N2Cc3cc(Cl)c(-c4cc(O)cc5ccccc45)cc3C2=O)C1 [Compound 70, 2-(1-acryloylazetidin-3-yl)-5-chloro-6-(3-hydroxynaphthalen-1-yl)isoindolin-1-one] | +++ (+++ indicates binding activity greater than 50%)
19 | C=CC(=O)N1CC(N2Cc3ccc(NC4CCCN(C(C)=O)C4)cc3C2=O)C1 (centres unmarked) [Compound 71, 6-((1-acetylpiperidin-3-yl)amino)-2-(1-acryloylazetidin-3-yl)isoindolin-1-one] | + (+ indicates binding activity up to 10%)
20 | C=CC(=O)N1CC(N2Cc3ccc(N4CCCC(O)C4)cc3C2=O)C1 (centres unmarked) [Compound 72, 2-(1-acryloylazetidin-3-yl)-6-(3-hydroxypiperidin-1-yl)isoindolin-1-one] | + (+ indicates binding activity up to 10%)
21 | C=CC(=O)N1CC(N2Cc3ccc(-c4c(O)ccc5ccccc45)cc3C2=O)C1 [Compound 73, 2-(1-acryloylazetidin-3-yl)-6-(2-hydroxynaphthalen-1-yl)isoindolin-1-one] | ++ (++ indicates binding activity from 10 to 50%)
22 | C=CC(=O)N1CC(N2Cc3cc(Cl)c(-c4c(C)ccc5[nH]ncc45)cc3C2=O)C1 [Compound 74, 2-(1-acryloylazetidin-3-yl)-5-chloro-6-(5-methyl-1H-indazol-4-yl)isoindolin-1-one] | ++ (++ indicates binding activity from 10 to 50%)
23 | C=CC(=O)N1CC(N2Cc3ccc(NC4CCN(C(C)=O)C4)cc3C2=O)C1 (centres unmarked) [Compound 75, 6-((1-acetylpyrrolidin-3-yl)amino)-2-(1-acryloylazetidin-3-yl)isoindolin-1-one] | + (+ indicates binding activity up to 10%)
24 | C=CC(=O)N1CC(N2Cc3ccc(C(=O)N4CCC(N(C)C)C4)cc3C2=O)C1 (centres unmarked) [Compound 76, 2-(1-acryloylazetidin-3-yl)-6-(3-(dimethylamino)pyrrolidine-1-carbonyl)isoindolin-1-one] | + (+ indicates binding activity up to 10%)
25 | C=CC(=O)N1CC(N2Cc3c(C(N)=O)cc(-c4c(C)ccc5[nH]ncc45)cc3C2=O)C1 [Compound 77, 2-(1-acryloylazetidin-3-yl)-6-(5-methyl-1H-indazol-4-yl)-1-oxoisoindoline-4-carboxamide] | + (+ indicates binding activity up to 10%)
26 | C=CC(=O)N1CC(N2Cc3ccc(N4CCCC(N(C)C)C4)cc3C2=O)C1 (centres unmarked) [Compound 78, 2-(1-acryloylazetidin-3-yl)-6-(3-(dimethylamino)piperidin-1-yl)isoindolin-1-one] | + (+ indicates binding activity up to 10%)
